Columns and labels:
[1] = test system: poly(dG-dC) (DNA, polymer) GC; assay: emission titration, McGhee-von Hippel fit; settings: 10 mM phosphate buffer (sodium in Fig. 2, potassium in Fig. S1); pH 7, air-saturated; [Ru] 20 μM; per base
[2] = test system: d(GCGCGCGCGC)2 (DNA, duplex) GCGCGCGCGC; assay: TRIR and transient absorption; settings: 50 mM potassium phosphate; pH 7, D2O
[3] = test system: poly(dA-dT) (DNA, polymer) AT; assay: emission titration (enhancement), TRIR; settings: 10 mM sodium phosphate, [Ru] 8 μM
[4] = test system: d(CGCGAATTCGCG)2 (DNA, duplex) CGCGAATTCGCG; assay: emission titration (quenching), TRIR; settings: 50 mM potassium phosphate; pH 7; [Ru] 10 μM
[5] = test system: d(CGCAAATTTGCG)2 (DNA, duplex) CGCAAATTTGCG; assay: emission titration (complex, decrease then increase), TRIR; settings: 50 mM potassium phosphate; pH 7; [Ru] 10 μM

Kb [1] | binding [2] | binding ([3]; reaches saturation) | binding [4] | binding [5] | binding ([3]; saturation not reached) | SMILES
3.6 ± 0.2 × 10^6 M^-1 | yes | yes | yes | yes |  | [Ru+2].c1ccc2nc3c4cccnc4c4ncccc4c3nc2c1.c1cnc2c(ccc3nccnc32)n1.c1cnc2c(ccc3nccnc32)n1 [Δ-1]
1.2 ± 0.1 × 10^6 M^-1 | yes |  | yes | yes | yes | [Ru+2].c1ccc2nc3c4cccnc4c4ncccc4c3nc2c1.c1cnc2c(ccc3nccnc32)n1.c1cnc2c(ccc3nccnc32)n1 [Λ-1]

— paper PMC8163394 (2020)
